In paper PMC3135366 (The Journal of Experimental Medicine, 2011):

Molecular target: T1, E. coli DOXPRI (Escherichia coli, UniProt P45568)
T1 sequence (P45568 1-398): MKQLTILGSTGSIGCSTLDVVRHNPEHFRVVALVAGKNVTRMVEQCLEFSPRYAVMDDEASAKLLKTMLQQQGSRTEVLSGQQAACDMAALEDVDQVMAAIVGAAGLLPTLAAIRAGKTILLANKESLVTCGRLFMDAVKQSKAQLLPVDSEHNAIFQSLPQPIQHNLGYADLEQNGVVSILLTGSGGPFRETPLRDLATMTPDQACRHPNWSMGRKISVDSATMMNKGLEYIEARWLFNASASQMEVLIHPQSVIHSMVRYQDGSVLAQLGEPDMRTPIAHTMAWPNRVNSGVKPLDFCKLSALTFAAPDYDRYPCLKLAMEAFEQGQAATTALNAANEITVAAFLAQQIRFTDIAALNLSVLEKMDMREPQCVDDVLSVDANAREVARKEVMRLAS
Assay: NADPH oxidation assay
Format: biochemical

## NC(=O)C1=CN([C@@H]2O[C@H](COP(=O)(O)OP(=O)(O)OC[C@H]3O[C@@H](n4cnc5c(N)ncnc54)[C@H](OP(=O)(O)O)[C@@H]3O)[C@@H](O)[C@H]2O)C=CC1 [NADPH]
  NADPH oxidation assay: noted robust activity for the E. coli enzyme expressed in parallel
